From patent US20150164781A1, “Personal Care Products Containing Extracts of Chinese Lantern (Physalis alkekengi)” (Kemin Industries, Inc., priority 2013, published 2015)

Experiment: Microtiter plate DPPH antioxidant assay
Conditions: 0.05 mg/mL DPPH, five minutes at 25° C., absorbance 517 nm; from polynomial regression
Experimental: HPLC grade reagent alcohol was obtained from Fisher Scientific, catalog number A995-4. 2,2-Diphenyl-1-picrylhydrazyl (DPPH) was from Fisher Scientific, catalog number AA4415003. Trolox was from Fisher Scientific, catalog number 05-402-25. Test material was prepared as in Example 1 (LumiSalisTM SE lot 592142P5, 592142P8 and 592142P9). Absorbance was measured using a Molecular Devices SpectraMax M5e plate reader (KH51-001) with a clear, flat-bottom 96-well plate, […] Science […] catalog number CC plate-PS-965-F-C-S. Masses were measured with a Mettler Toledo analytical balance (Model X5204). […] The controls and samples were all plated in triplicate and the average absorbance value was used for results calculations. The plate was shaken and incubated at 25° C. in the microplate reader for five minutes. The absorbance was measured at 517 nm. The sample concentrations (x-axis) are plotted against their respective relative average absorbance value (subtracted the average absorbance of the background from the average absorbance) at 517 nm (y-axis) and the best fit line (a polynomial fit) is calculated. The […] (50% inhibition) of each control and sample were calculated based on the polynomial regression line equation.

Cc1c(C)c2c(c(C)c1O)CCC(C)(C(=O)O)O2 (stereo not shown) [trolox, Trolox]
IC50 on DPPH assay: 0.0010%
